{"source": "ChEMBL document CHEMBL5046300", "about": "“Potent Bactericidal Antimycobacterials Targeting the Chaperone ClpC1 Based on the Depsipeptide Natural Products Ecumicin and Ohmyungsamycin A” (2022)", "key": {"[1]": {"tested_on": "Mycobacterium tuberculosis", "assay": "Antimycobacterial activity against Mycobacterium tuberculosis mc2 6230 measured after 7 days", "format": "functional", "conditions": "mc2 6230, 168 h, time 7 day"}, "[2]": {"tested_on": "Mycobacterium tuberculosis", "assay": "Antimycobacterial activity against Mycobacterium tuberculosis mc2 6230 assessed as log reduction in bacteria measured up to 21 days by Time kill assay", "format": "functional, organism-based", "conditions": "time day <=21"}, "[3]": {"tested_on": "Mycobacterium tuberculosis", "assay": "Antibacterial activity against Mycobacterium tuberculosis mc2 6230 assessed as reduction in viable cells at 10 times MIC measured for 42 days in solid media by time kill assay", "format": "functional", "conditions": "time 42.0 day"}}, "note": "Activity calls are given as the source filed them. The calls are words filed in the database; no cut-off is given here. *1 amine or outer side, *2 acyl side, *3 side chain or, on linkers, in order; H or OH if unused. Where a SMILES comes first, the peptide text is derived from it. Bridges are numbered along the chain shown (N, C = ends). [ ]: non-standard residue; d: D form. The star is where a group is joined. Phe(3R-OH) = O=C([C@@H](N[*:1])[C@H](O[*:3])c1ccccc1)[*:2]; NMeTrp(4-OMe) = CN[C@@H](Cc1c[nH]c2cccc(OC)c12)C(=O)O; NMeW = CN[C@@H](Cc1c[nH]c2ccccc12)C(=O)O; NMe2Val = CC(C)[C@@H](C(=O)*)N(C)C; Hyp = O=C(O)[C@@H]1C[C@@H](O)CN1; NMeT = CN[C@H](C(=O)O)[C@@H](C)O; NMeL = CN[C@@H](CC(C)C)C(=O)O; NMeNle = CCCC[C@H](NC)C(=O)O; NMeNva = CCC[C@H](NC)C(=O)O; NMeV = CN[C@H](C(=O)O)C(C)C"}
{"smiles": "CN[C@H](C(=O)N[C@H](C(=O)N[C@@H]1C(=O)N(C)[C@@H]([C@@H](C)O)C(=O)N[C@@H](C(C)C)C(=O)N(C)[C@@H](CC(C)C)C(=O)N[C@@H](C(C)C)C(=O)N2C[C@H](O)C[C@H]2C(=O)N(C)[C@@H](Cc2c[nH]c3ccccc23)C(=O)N[C@@H](C(C)C)C(=O)N[C@@H](Cc2ccccc2)C(=O)N[C@@H](C(C)C)C(=O)O[C@@H]1C)C(C)C)C(C)C", "note": "(H-[NMeV]VT[NMeT]V[NMeL]V[Hyp][NMeW]VFV; ester 3-C)", "values": [{"measurement": "MIC", "setting": "[1]", "value": 8, "unit": "µM"}]}
{"smiles": "CN[C@H](C(=O)N[C@H](C(=O)N[C@@H]1C(=O)N(C)[C@@H]([C@@H](C)O)C(=O)N[C@@H](C(C)C)C(=O)N(C)[C@@H](CC(C)C)C(=O)N[C@@H](C(C)C)C(=O)N(C)[C@@H](C(C)C)C(=O)N(C)[C@@H](Cc2c[nH]c3ccccc23)C(=O)N[C@@H](C(C)C)C(=O)N[C@@H](Cc2ccccc2)C(=O)N[C@@H](C(C)C)C(=O)O[C@@H]1C)C(C)C)C(C)C", "note": "(H-[NMeV]VT[NMeT]V[NMeL]V[NMeV][NMeW]VFV; ester 3-C)", "values": [{"measurement": "MIC", "setting": "[1]", "value": 0.25, "unit": "µM"}, {"measurement": "Activity", "setting": "[2]", "value": "Active"}]}
{"smiles": "CN[C@H](C(=O)N[C@H](C(=O)N[C@@H]1C(=O)N(C)[C@@H]([C@@H](C)O)C(=O)N[C@@H](C(C)C)C(=O)N(C)[C@@H](CC(C)C)C(=O)N[C@@H](C(C)C)C(=O)N2CCC[C@H]2C(=O)N(C)[C@@H](Cc2c[nH]c3ccccc23)C(=O)N[C@@H](C(C)C)C(=O)N[C@@H](Cc2ccccc2)C(=O)N[C@@H](C(C)C)C(=O)O[C@@H]1C)C(C)C)C(C)C", "note": "(H-[NMeV]VT[NMeT]V[NMeL]VP[NMeW]VFV; ester 3-C)", "values": [{"measurement": "MIC", "setting": "[1]", "value": 8, "unit": "µM"}]}
{"smiles": "COc1cccc2[nH]cc(C[C@H]3C(=O)N[C@@H](C(C)C)C(=O)N[C@@H]([C@H](O)c4ccccc4)C(=O)N[C@@H](C(C)C)C(=O)O[C@H](C)[C@H](NC(=O)[C@@H](NC(=O)[C@H](C(C)C)N(C)C)C(C)C)C(=O)N(C)[C@@H]([C@@H](C)O)C(=O)N[C@@H](C(C)C)C(=O)N(C)[C@@H](CC(C)C)C(=O)N[C@@H](C(C)C)C(=O)N(C)[C@@H](C(C)C)C(=O)N3C)c12", "note": "(NMe2Val-VT[NMeT]V[NMeL]V[NMeV][NMeTrp(4-OMe)]V[Phe(3R-OH)]V; ester 2-C)", "values": [{"measurement": "MIC", "setting": "[1]", "value": 0.5, "unit": "µM"}]}
{"smiles": "CCCC[C@H]1C(=O)N(C)[C@@H](Cc2c[nH]c3ccccc23)C(=O)N[C@@H](C(C)C)C(=O)N[C@@H](Cc2ccccc2)C(=O)N[C@@H](C(C)C)C(=O)O[C@H](C)[C@H](NC(=O)[C@@H](NC(=O)[C@@H](NC)C(C)C)C(C)C)C(=O)N(C)[C@@H]([C@@H](C)O)C(=O)N[C@@H](C(C)C)C(=O)N(C)[C@@H](CC(C)C)C(=O)N[C@@H](C(C)C)C(=O)N1C", "note": "(H-[NMeV]VT[NMeT]V[NMeL]V[NMeNle][NMeW]VFV; ester 3-C)", "values": [{"measurement": "MIC", "setting": "[1]", "value": 0.5, "unit": "µM"}]}
{"smiles": "CN[C@H](C(=O)N[C@H](C(=O)N[C@@H]1C(=O)N(C)[C@@H]([C@@H](C)O)C(=O)N[C@@H](C(C)C)C(=O)N(C)[C@@H](CC(C)C)C(=O)N[C@@H](C(C)C)C(=O)N(C)[C@@H](Cc2c[nH]c3ccccc23)C(=O)N(C)[C@@H](Cc2c[nH]c3ccccc23)C(=O)N[C@@H](C(C)C)C(=O)N[C@@H](Cc2ccccc2)C(=O)N[C@@H](C(C)C)C(=O)O[C@@H]1C)C(C)C)C(C)C", "note": "(H-[NMeV]VT[NMeT]V[NMeL]V[NMeW][NMeW]VFV; ester 3-C)", "values": [{"measurement": "MIC", "setting": "[1]", "value": 0.5, "unit": "µM"}]}
{"smiles": "CCC[C@H]1C(=O)N(C)[C@@H](Cc2c[nH]c3ccccc23)C(=O)N[C@@H](C(C)C)C(=O)N[C@@H](Cc2ccccc2)C(=O)N[C@@H](C(C)C)C(=O)O[C@H](C)[C@H](NC(=O)[C@@H](NC(=O)[C@@H](NC)C(C)C)C(C)C)C(=O)N(C)[C@@H]([C@@H](C)O)C(=O)N[C@@H](C(C)C)C(=O)N(C)[C@@H](CC(C)C)C(=O)N[C@@H](C(C)C)C(=O)N1C", "note": "(H-[NMeV]VT[NMeT]V[NMeL]V[NMeNva][NMeW]VFV; ester 3-C)", "values": [{"measurement": "MIC", "setting": "[1]", "value": 0.5, "unit": "µM"}]}
{"smiles": "NNC(=O)c1ccncc1", "values": [{"measurement": "Activity", "setting": "[3]", "value": "inactive"}]}
